Legend:
Conditions in all cases: 72 h
[1] = system: MV4-11
Procedure, shortened: (§1)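 Fifteen myeloid leukaemia cell lines were seeded in RPMI 1640 at densities titrated to the linear growth range and placed in 384-well plates with acoustically pre-printed compounds at five tenfold doses from 1 to 10,000 nM, in duplicate. After 72 h at 37 °C with 5% CO2, luminescent ATP viability was normalised to vehicle and to a positive control at 10 µM, and curves were fitted with a four-parameter log-logistic model. The IC50 was obtained from these fits.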

[2] = system: Mono-Mac-6
Procedure, shortened: as §1

[3] = system: BV-173
Procedure, shortened: as §1

[4] = system: HEL
Procedure, shortened: as §1

[5] = system: K-562
Procedure, shortened: as §1

[6] = system: KU-812
Procedure, shortened: as §1

[7] = system: KCL-22
Procedure, shortened: as §1

[8] = system: LAMA-84
Procedure, shortened: as §1

[9] = system: MOLM-13
Procedure, shortened: as §1

[10] = system: SHI-1
Procedure, shortened: as §1

[11] = system: ML-2
Procedure, shortened: as §1

[12] = system: THP-1
Procedure, shortened: as §1

[13] = system: HL-60
Procedure, shortened: as §1

[14] = system: KG-1
Procedure, shortened: as §1

[15] = system: NOMO-1
Procedure, shortened: as §1

[16] = system: MV4-11; experiment: cell viability (% survival relative to DMSO control, bortezomib = 0%); higher = less cytotoxic
Procedure, shortened: (§2)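 Fifteen myeloid leukaemia cell lines (10 AML, 5 CML) were seeded at a density titrated to the linear growth range into 384-well plates pre-printed with compounds at 1, 10, 100, 1000 or 10000 nM in duplicate. Plates were incubated for 72 h at 37 °C with 5% CO2. Viability was then read by CellTiter-Glo luminescence. Each value is percent survival averaged over the duplicates, with vehicle set to 100% and a 10 µM positive control to 0%.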

[17] = system: Mono-Mac-6; experiment: as above
Procedure, shortened: as §2

[18] = system: BV-173; experiment: as above
Procedure, shortened: as §2

[19] = system: HEL; experiment: as above
Procedure, shortened: as §2

[20] = system: K-562; experiment: as above
Procedure, shortened: as §2

[21] = system: KU-812; experiment: as above
Procedure, shortened: as §2

[22] = system: KCL-22; experiment: as above
Procedure, shortened: as §2

[23] = system: LAMA-84; experiment: as above
Procedure, shortened: as §2

[24] = system: MOLM-13; experiment: as above
Procedure, shortened: as §2

[25] = system: SHI-1; experiment: as above
Procedure, shortened: as §2

[26] = system: ML-2; experiment: as above
Procedure, shortened: as §2

[27] = system: THP-1; experiment: as above
Procedure, shortened: as §2

[28] = system: HL-60; experiment: as above
Procedure, shortened: as §2

[29] = system: KG-1; experiment: as above
Procedure, shortened: as §2

[30] = system: NOMO-1; experiment: as above
Procedure, shortened: as §2

NCc1ccc(-c2cccnc2)s1 [(5-Pyrid-3-YLTHIEN-2-YL)METHYLAMINE]
Conditions	IC50 (cell viability) [µM]
[1]	> 10
[2]	> 10
[3]	> 10
[4]	> 10
[5]	> 10
[6]	> 10
[7]	> 10
[8]	> 10
[9]	> 10
[10]	> 10
[11]	> 10
[12]	> 10
[13]	> 10
[14]	> 10
[15]	> 10

cell viability [%]
Conditions	1 nM	10 nM	100 nM	1000 nM	10000 nM
[16]	91.6	123	104	110	89.6
[17]	108	103	95.7	104	89
[18]	113	102	98.7	104	87.2
[19]	105	103	104	109	104
[20]	92.7	122	96.1	90.4	94
[21]	104	107	97.7	104	85.1
[22]	122	114	91.6	84.7	88.8
[23]	108	106	102	93	91.2
[24]	100	102	93.7	97.8	91.8
[25]	107	115	105	97	100
[26]	104	108	97.6	113	96.5
[27]	109	111	99.6	104	93
[28]	99.3	107	103	115	121
[29]	109	108	99.8	108	87.6
[30]	109	105	97.5	109	87.9

Cc1cc(O)c2c(c1)C(=O)c1cc(O)cc(O)c1C2=O [Emodin]
Conditions	IC50 (cell viability) [µM]
[1]	> 10
[2]	> 10
[3]	> 10
[4]	> 10
[5]	> 10
[6]	> 10
[7]	> 10
[8]	> 10
[9]	> 10
[10]	> 10
[11]	> 10
[12]	> 10
[13]	> 10
[14]	> 10
[15]	> 10

cell viability [%]
Conditions	1 nM	10 nM	100 nM	1000 nM	10000 nM
[16]	92.8	85.6	93	99	100
[17]	92.1	106	97.3	102	81.7
[18]	88.8	111	99.8	74.6	89.8
[19]	105	114	98.5	89.8	115
[20]	109	94.2	102	102	112
[21]	95.1	100	104	89.8	80.8
[22]	103	97.9	96.6	98.5	96
[23]	102	100	102	96.5	112
[24]	67	101	112	95.2	71.4
[25]	88.6	97.8	98.3	94.5	93.5
[26]	97.8	104	101	89.5	98.2
[27]	90.6	97.3	106	90.5	105
[28]	90.5	97.8	124	88.2	109
[29]	90.7	89.7	96.1	97.3	94.9
[30]	99.1	100	103	104	112

Cl.NC1=CCCN1Cc1nc(O)nc(O)c1Cl [Tipiracil]
Conditions	IC50 (cell viability) [µM]
[1]	> 10
[2]	> 10
[3]	> 10
[4]	> 10
[5]	> 10
[6]	> 10
[7]	> 10
[8]	> 10
[9]	> 10
[10]	> 10
[11]	> 10
[12]	> 10
[13]	> 10
[14]	> 10
[15]	> 10

cell viability [%]
Conditions	1 nM	10 nM	100 nM	1000 nM	10000 nM
[16]	107	105	109	104	106
[17]	122	96.2	107	100	96.5
[18]	108	95.1	97.9	99.5	106
[19]	122	102	112	111	103
[20]	106	99.8	105	115	106
[21]	101	88.8	104	108	99.7
[22]	115	90.2	105	114	90.8
[23]	115	94.8	98.7	110	102
[24]	104	96.3	122	121	93.6
[25]	107	106	125	113	116
[26]	108	92.7	114	105	104
[27]	102	97.2	102	101	101
[28]	98.8	97.2	127	130	119
[29]	98.2	95.1	111	107	111
[30]	106	100	100	100	99.2

O=C(Oc1cccc(F)c1OC(=O)c1cccc(O)c1)c1cccc(O)c1 [WZB117]
Conditions	IC50 (cell viability) [µM]
[1]	2.93
[2]	4.74
[3]	4.56
[4]	> 10
[5]	> 10
[6]	3.88
[7]	> 10
[8]	> 10
[9]	8.47
[10]	> 10
[11]	5.89
[12]	> 10
[13]	9.7
[14]	5.35
[15]	> 10

cell viability [%]
Conditions	1 nM	10 nM	100 nM	1000 nM	10000 nM
[16]	106	85.9	97	88.2	25.4
[17]	96.6	104	99.7	101	16.9
[18]	96	104	90.5	98.8	15.4
[19]	107	110	95.2	99.8	72.7
[20]	96.2	101	102	106	79.1
[21]	99.1	103	90.9	99.9	9.71
[22]	101	91.4	92	110	70.6
[23]	97.9	98.6	92.4	95.1	101
[24]	92.2	125	94.7	94	44.8
[25]	95.8	95.6	102	103	72.5
[26]	102	104	98.7	98.8	25.5
[27]	101	102	101	108	64.9
[28]	102	98	93.3	104	48
[29]	113	95.7	87.6	90.4	30.7
[30]	95.5	94.3	94.1	111	82.1

CCC(CC#N)OC(=O)N[C@@H](C)c1cccc(NC(=O)Nc2ccc(-c3cnco3)c(OC)c2)c1 (stereo in doubt) [AVN-944]
Conditions	IC50 (cell viability) [µM]
[1]	0.0781
[2]	0.151
[3]	0.118
[4]	0.151
[5]	0.0558
[6]	0.0949
[7]	0.0628
[8]	0.0736
[9]	0.0449
[10]	0.137
[11]	0.0668
[12]	1.9
[13]	0.182
[14]	0.173
[15]	0.451

cell viability [%]
Conditions	1 nM	10 nM	100 nM	1000 nM	10000 nM
[16]	92.1	96.4	35.8	-0.602	-0.425
[17]	90.2	90.5	60.2	16.4	8.67
[18]	93.8	80.7	50.8	-0.621	-0.6
[19]	101	119	70	4.65	2.7
[20]	103	96.9	30.3	10.1	5.46
[21]	93.6	106	50.2	9.58	3.66
[22]	94.6	114	32.7	11.6	7.56
[23]	92.5	102	43.9	19	12.5
[24]	130	121	8.35	1.17	0.252
[25]	104	107	68.2	12.4	8.7
[26]	99.6	111	29.5	1.17	-0.0869
[27]	101	99.7	101	65.3	43.1
[28]	94.9	85.7	61.6	12.6	1.98
[29]	108	99.4	74.1	27	20.2
[30]	99.9	101	86.5	34	10.4

N=C(N)c1ccc(N=NNc2ccc(C(=N)N)cc2)cc1 [Diminazene]
Conditions	IC50 (cell viability) [µM]
[1]	> 10
[2]	> 10
[3]	> 10
[4]	> 10
[5]	> 10
[6]	> 10
[7]	> 10
[8]	> 10
[9]	> 10
[10]	> 10
[11]	> 10
[12]	> 10
[13]	> 10
[14]	> 10
[15]	> 10

cell viability [%]
Conditions	1 nM	10 nM	100 nM	1000 nM	10000 nM
[16]	113	100	94.6	92.2	77.9
[17]	97	100	107	105	98.2
[18]	104	103	106	106	103
[19]	103	109	111	93.8	111
[20]	102	99.3	119	94.5	96.7
[21]	89.2	100	95.5	101	85.7
[22]	102	96.6	114	84.4	72.7
[23]	105	103	108	105	98.3
[24]	94.4	98.1	101	73.7	93.9
[25]	100	102	116	95.3	95.8
[26]	104	98.7	100	106	93.7
[27]	105	99.7	107	103	86.3
[28]	83	102	123	116	96.6
[29]	115	109	114	97.7	88.9
[30]	106	99	104	102	86.9

Source: the supplement of paper PMC8671470
